Laboratory results from patent US7462227B2 (E.I. du Pont de Nemours and Company, priority 2005, dated 2008).
“Also recorded” adds a separate entry of the source.

What was measured:
termites = settings: Connick et al 2001; cited from earlier work

Protocol for Solubility: In general, solubility of the complex is determined by visual observation, and a complex is considered to be solbilized when a sufficient amount of the complex is dissolved in the solution to permit a desired amount of the complex to be adsorbed on and/or absorbed in the cellulosic material when the treatment thereof occurs.

Row | SMILES | toxicity to termites (termites) | solubility in methanol and ethanol (Solubility) | solubility in water (Solubility)
1 | CC(C)Cc1ccc(C(C)C(=O)O)cc1 (centres unmarked) [ibuprofen] | toxic | soluble | relatively insoluble; also recorded: only slightly soluble
2 | CC(C)Cc1ccc(C(C)C(=O)[O-])cc1.[Na+] (centres unmarked) [sodium ibuprofenate] |  | soluble | relatively insoluble
